Measurements as given in patent publication US20140127192A1, “METHOD FOR TREATING OSTEOPOROSIS” (AMGEN INC, priority 2011, published 2014).

Legend:
[1] = system: bone resorption marker (CTX) and bone formation markers (P1NP, BSAP, OC); experiment: Bone turnover markers in the same study (serum CTX, P1NP, BSAP, OC); format: in vivo, human; conditions: open label active control
Excerpt: A subject's physiological response to an anti-sclerostin antibody can be gauged by monitoring bone marker levels. Bone markers are products created during the bone remodeling process and are released by bone, osteoblasts, and/or osteoclasts. Fluctuations in bone resorption and/or bone formation “marker” levels imply changes in bone remodeling/modeling. The International Osteoporosis Foundation (IOF) recommends using bone markers to monitor bone density therapies (see, e.g., Delmas et al., Osteoporos Int., Suppl. 6:S2-17 (2000), incorporated herein by reference). Markers indicative of bone resorption (or osteoclast activity) include, for example, C-telopeptide (e.g., C-terminal telopeptide of type 1 collagen (CTX) or serum cross-linked C-telopeptide), N-telopeptide (N-terminal telopeptide of type 1 collagen (NTX)), deoxypyridinoline (DPD), pyridinoline, urinary hydroxyproline, galactosyl hydroxylysine, and tartrate-resistant acid phosphatase (e.g., serum tartrate-resistant acid phosphatase isoform 5b). Bone formation/mineralization markers include, but are not limited to, bone-specific alkaline phosphatase (BSAP), peptides released from N- and C-terminal extension of type I procollagen (P1NP, PICP), and osteocalcin (OC). Several kits are commercially-available to detect and quantify markers in clinical samples, such as urine and blood.
A multicenter, international, randomized, parallel group study in postmenopausal women with low BMD at lumbar vertebrae, total hip or femoral neck was conducted. 419 subjects were randomized to receive one of five regimens of an anti-sclerostin antibody, placebo, open label alendronate (ALN), or open label teriparatide (TPTD) for 12 months. The placebo group was further randomized to match the schedules corresponding to the five anti-sclerostin antibody regimens. […] BMD was measured by DXA. […]

[2] = system: postmenopausal women with low BMD at lumbar vertebrae, total hip or femoral neck; experiment: Randomized multicenter study, BMD measured by DXA in postmenopausal women with low BMD; format: in vivo, human; conditions: open label active control arm; for Femoral Neck BMD % Change from Baseline, Mean / Lumbar Vertebrae BMD % Change from Baseline, Mean / Total Hip BMD % Change from Baseline, Mean: 12 months; for mean percent change of lumbar vertebrae BMD from pretreatment baseline: month 6; for mean percent change of distal ⅓ radius BMD from pretreatment baseline: month 12
Procedure: This example describes in vivo studies wherein an anti-sclerostin antibody improved bone mineral density in postmenopausal women.
A multicenter, international, randomized, parallel group study in postmenopausal women with low BMD at lumbar vertebrae, total hip or femoral neck was conducted. 419 subjects were randomized to receive one of five regimens of an anti-sclerostin antibody, placebo, open label alendronate (ALN), or open label teriparatide (TPTD) for 12 months. The placebo group was further randomized to match the schedules corresponding to the five anti-sclerostin antibody regimens. The subject distribution was as follows: 52 subjects to the placebo arm, 51 subjects to ALN arm, 55 subjects to TPTD arm, and 51, 54, 51, 53, and 52 subjects to anti-sclerostin antibody 70 mg QM, 140 mg Q3M, 140 mg QM, 210 mg Q3M, and 210 mg QM arms, respectively. 383 subjects completed the 12 months of study. Among all subjects enrolled in the study, the mean age was 66.8 years old, 86.4% of subjects were Caucasian, and the mean pretreatment baseline lumbar vertebrae and total hip BMD T-scores were −2.29 and −1.53, respectively. The primary analysis occurred after all subjects had the opportunity to complete the month 12 study visit. BMD was measured by DXA. Overall, the proportions of patients reporting adverse events were balanced between placebo arm and anti-sclerostin antibody arms.

| Structure (SMILES) | adaptive response (bone formation markers falling to approximately baseline within two to six months) [1] | bone formation markers over the course of treatment [1] | Femoral Neck BMD % Change from Baseline, Mean [2] [%] | Lumbar Vertebrae BMD % Change from Baseline, Mean [2] [%] | Total Hip BMD % Change from Baseline, Mean [2] [%] | mean percent change of lumbar vertebrae BMD from pretreatment baseline [2] [%] | mean percent change of distal ⅓ radius BMD from pretreatment baseline [2] [%] |
| --- | --- | --- | --- | --- | --- | --- | --- |
| CC[C@H](C)[C@H](NC(=O)[C@H](CCC(=O)O)NC(=O)[C@H](CO)NC(=O)[C@@H](NC(=O)[C@@H](N)CO)C(C)C)C(=O)N[C@@H](CCC(N)=O)C(=O)N[C@@H](CC(C)C)C(=O)N[C@@H](CCSC)C(=O)N[C@@H](Cc1cnc[nH]1)C(=O)N[C@@H](CC(N)=O)C(=O)N[C@@H](CC(C)C)C(=O)NCC(=O)N[C@@H](CCCCN)C(=O)N[C@@H](Cc1cnc[nH]1)C(=O)N[C@@H](CC(C)C)C(=O)N[C@@H](CC(N)=O)C(=O)N[C@@H](CO)C(=O)N[C@@H](CCSC)C(=O)N[C@@H](CCC(=O)O)C(=O)N[C@@H](CCCN=C(N)N)C(=O)N[C@H](C(=O)N[C@@H](CCC(=O)O)C(=O)N[C@@H](Cc1c[nH]c2ccccc12)C(=O)N[C@@H](CC(C)C)C(=O)N[C@@H](CCCN=C(N)N)C(=O)N[C@@H](CCCCN)C(=O)N[C@@H](CCCCN)C(=O)N[C@@H](CC(C)C)C(=O)N[C@@H](CCC(N)=O)C(=O)N[C@@H](CC(=O)O)C(=O)N[C@H](C(=O)N[C@@H](Cc1cnc[nH]1)C(=O)N[C@@H](CC(N)=O)C(=O)N[C@@H](Cc1ccccc1)C(=O)O)C(C)C)C(C)C [TPTD, teriparatide] | not observed | remained elevated | 1.1 | 7.1 | 1.3 | 4.8 | −1.7 |
| NCCCC(O)(P(=O)(O)O)P(=O)(O)O [ALN, alendronate] | not observed |  | 1.2 | 4.1 | 1.9 | 2.6 | −0.3 |
